Data as given in US20220242851A1, “CRYSTAL FORM AND SALT OF QUINAZOLINE COMPOUND AND PREPARATION METHOD THEREOF” (SHENZHEN JINRUI FOUNDATION BIOTECH CO., LTD, priority 2019, published 2022).

How the values were obtained:
OE21 cell = assay: Inhibition of cell proliferation, Cell-Titer-Glo, OE21; format: cell-based, human; conditions: conclusion
Excerpt: Purpose of the assay: the inhibitory activity of the assay compounds on cell proliferation was detected. Principle of the assay: the luciferase in a Cell-Titer-Glo reagent produces oxidized luciferin with luciferin, oxygen and ATP as reaction substrates, and releases energy in the form of light. Since the luciferase reaction requires ATP, the total amount of light generated by the reaction is proportional to the total amount of ATP that reflects cell viability. Cell line: NCI-N87 cell line (ATCC-CRL-5822), BT-474 cell line (ATCC-HTB-20), OE21 (ECACC-96062201) Cell culture medium: […] L-[…]×, Gibco#25030-081; penicillin-streptomycin Hyclone# SV30010) Cell Titer-Glo® cell viability assay kit with luminescence (Promega #G7573) 384-well cell culture plate (Greiner # 781090) Compound plate (LABCYTE # LP-0200) CO2 incubator (Thermo#371) Vi-cell cell counter (Beckman Coulter) According to the schematic diagram of the cell seed plate, cells were seeded in a 384- or 96-well plate at a density of 1000 cells per well and 25 μL per well, and 25 μL of PBS was added to the wells near edge of the place where no cells were seeded. (1) The stock solution of the compounds has a concentration of 10 mM, and the compounds were diluted with DMSO to an initial concentration of 4 mM. […] After 10 minutes, the plate was read on PerkinElmer Envision, and the […] reading time was set to 0.2 second.

OE19 cells = assay: CTG assay of OE19 cells; format: cell-based; conditions: conclusion
Protocol: OE19 cells with saturation of 80%-90% were digested with trypsin, centrifuged, resuspended and counted. The concentration of cells was adjusted to […]. OE19 cells were added to a 96-well cell culture plate to 8000 OE19 cells per well. The cells were cultured in a cell incubator containing 5% CO2 at 37° C. overnight.
The stock solution of the assay compounds was serially 3-fold diluted with DMSO to a total of 10 concentrations. Before the start of the assay, the serially diluted assay compounds were further diluted to 10×compound solutions (the highest concentration of 100 μM containing 1% DMSO) with cell culture medium under sterile conditions. The prepared 10×compound solutions were added to the cell culture plate with 10 μL per well. […]
After 72 hours of cell culture, the 96-well cell culture plate was taken out. […] The cell plate was placed in Envision for reading.
The inhibition rate was calculated according to original data as follows: […]
Non-linear regression analysis was performed using the processed data and GraphPad Prism 6 analysis software to obtain a dose-response curve, and the half-inhibitory concentration (IC50) of the assay compounds on OE19 cells was calculated.

Pharmacokinetics in mice = format: in vivo, mouse
Protocol: Purpose of the assay: this assay aimed to investigate in vivo plasma pharmacokinetics of the example compound disclosed herein and the reference compound in female BALB/c mice after the single intravenous injection and intragastric administration thereof.
Animals of the assay: female BALB/c nude mice, 7-9 weeks old, weighted 17-23 grams; supplier: shanghai sippr bk laboratory animals Ltd.
Sample collection: at each time point, a 0.03 mL blood sample was collected from the saphenous vein of the assay animal by puncture, and the actual blood collection time was recorded. All blood samples were added into commercial EDTA-K2 anticoagulation tubes with a specification of 1.5 mL (the supplier was Jiangsu KANGJIAN Medical Apparatus Co., Ltd.). Within half an hour after the blood sample was collected, the blood sample was centrifuged at 3000 g at 4° C. for 10 minutes, and the supernatant plasma was drawn, quickly placed in dry ice, and stored in a refrigerator at −80° C. for LC-MS/MS analysis.
Data analysis: Plasma concentrations were processed using a non-compartmental model of WinNonlin™Version6.3 (Pharsight, MountainView, Calif.) pharmacokinetic software, and pharmacokinetic parameters Cmax, Tmax, T1/2, and AUC0-last were calculated using a linear log trapezoid method.

CYP2D6 = biological target: T1, CYP2D6 (Homo sapiens, UniProt P10635); assay: Inhibition of CYP enzyme activity in human liver microsome, CYP2D6; format: in vitro ADME; conditions: versus Poziotinib
T1 construct: in the assay of CYP enzyme activity in human liver microsome; from tissue; host or cells: human liver microsome
T1 sequence (P10635 whole entry): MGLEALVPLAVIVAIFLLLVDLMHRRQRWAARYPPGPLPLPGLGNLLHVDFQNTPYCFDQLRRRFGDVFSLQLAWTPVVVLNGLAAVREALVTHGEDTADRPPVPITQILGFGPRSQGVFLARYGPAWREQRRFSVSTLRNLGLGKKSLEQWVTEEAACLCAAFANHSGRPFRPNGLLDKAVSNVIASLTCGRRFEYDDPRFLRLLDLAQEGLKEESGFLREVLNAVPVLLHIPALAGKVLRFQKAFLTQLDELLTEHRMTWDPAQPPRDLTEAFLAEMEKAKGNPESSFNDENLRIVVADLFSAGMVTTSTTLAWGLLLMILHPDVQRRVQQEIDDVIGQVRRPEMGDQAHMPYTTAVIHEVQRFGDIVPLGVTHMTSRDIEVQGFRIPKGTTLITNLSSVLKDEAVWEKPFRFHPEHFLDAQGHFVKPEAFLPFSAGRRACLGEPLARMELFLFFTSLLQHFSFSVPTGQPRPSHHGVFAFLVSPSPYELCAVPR
Excerpt: The results of the compound disclosed herein and the reference compound Poziotinib in the assay of CYP enzyme activity in human liver microsome were shown in the following table (Table 17).

C=CC(=O)N1[C@@H]2CC[C@H]1C[C@H](Nc1cc3c(Nc4ccc(Cl)c(Cl)c4F)ncnc3cc1OC)C2 [Compound of formula (I)]
inhibitory activity on the proliferation of OE21 cells (in words) (OE21 cell): significant inhibitory activity | inhibitory activity on the proliferation of OE19 cells (in words) (OE19 cells): significant inhibitory activity | half-life compared with reference (in words) (Pharmacokinetics in mice): longer half-life than that of the reference compound | oral plasma exposure compared with Poziotinib and control compound 2 (in words) (Pharmacokinetics in mice): significantly better oral plasma exposure | activity on CYP2D6, times better than the reference compound (CYP2D6): 6 times
